The source of these data is paper PMC8691750, “Euphorbia Factor L2 ameliorates the Progression of K/BxN Serum-Induced Arthritis by Blocking TLR7 Mediated IRAK4/IKKβ/IRF5 and NF-kB Signaling Pathways” (Frontiers in Pharmacology, 2021).

Series [1] is described as follows: In vivo pharmacokinetic study, plasma UPLC-MS. Also noted: species or system C57BL/6 mice. The note with it: for Cmax: 40 mg/kg. The method, then:
Prior to the pharmacokinetic study, 12 male C57BL/6 mice were fasted for 12 h with free access to water, and then treated by intraperitoneal injection of EFL2 at a dose of 40 mg/kg. About 50 μL blood samples were collected via the oculi chorioideae vein at 0.5, 1, 2, 4, 8, 12, 24, 72, 96, and 168 h, respectively. After centrifugation at 5,000 rpm for 10 min, plasma samples were obtained and frozen at −80°C until analysis. The pharmacokinetic parameters of EFL2 were calculated using WinNolin 4.0.1 software.
20 μL plasma samples were spiked with 340 μL acetonitrile by vortex mixing for 30 s. The mixture was then centrifuged at 10,000 rpm for 5 min at 4°C to separate the precipitated protein. An aliquot of 50 μL supernatant was transferred to a fresh tube and spiked with 450 μL mobile phase (acetonitrile containing 0.1% formic acid). After centrifugation at 13,000 rpm for 5 min, 3 μL supernatant was injected into Agilent 6,495 Triple Quadrupole LC/MS/MS system for each time. Then, the concentration of EFL2 was determined.
An Agilent 1,200 series UPLC system (Agilent Technologies, Waldbronn, Germany) equipped with an 6,495 quadruple mass spectrometer (Agilent Technologies, Santa Clara, CA, United States) were used for pharmacokinetic study. The separation was carried out with Waters Acquity UPLC BEH C18 column (2.1 × 50 mm, 1.7 μm) at a constant temperature of 30 °C. The mobile phase was composed of aqueous solution (0.1% formic acid, A) and acetonitrile (containing 0.1% formic acid, B) and the program of the mobile phase was as follows: 0 min, 40% B; 1 min, 40% B; 1.5 min, 80% B; 2.5 min, 90% B; 4 min, 90% B; 4.1 min, 40% B; 6 min, 40% B, at a flow rate of 0.3 ml/min. The mass spectra were acquired using a triple quadrupole mass spectrometer with ESI ion source in positive mode. The ionization conditions were as follows: drying gas temperature (N2), 300°C; gas flow, 11 L/min (N2); nebulizer pressure, 35 psi (N2). An Agilent Mass Hunter workstation was used for data processing.

Series [2] relates to TLR7-mediated IRAK4/IKKβ/IRF5 signaling pathway. Kind of series: Western blot, IRAK4/IKKβ/IRF5 in R837-stimulated RAW264.7 cells. The note with it: R837-stimulated RAW264.7. The series is classed as cell-based, mouse. The method, then: RAW264.7 cells (2×10^6 cells/well) were plated into 6-well plates and then incubated at 37°C in 5% CO2 for 24 h. After incubated with various concentrations of EFL2 (1, 5 and 10 µM) for 1 h, cells were then stimulated by R837 (20 μg/ml) for 30 min. Cell lysates were prepared by direct lysis in 20 µL IP buffer (Beyotime Biotechnology, Shanghai, China). After obtaining the whole cell extracts, the cytosolic and nuclear were seperated using Nuclear and Cytoplasmic Protein Extraction Kit (Beyotime Biotechnology, Shanghai, China). BCA Protein Assay Kit (Beyotime Biotechnology, Nantong, China) was applied to determine the protein concentrations. The bands corresponding to p- IKKα/β, IKKα/β, p-IκBα, IκBα, p-p65, p65, p-IRAK4, IRAK4, p-IKKβ, IKKβ, p-IRF5, IRF5, β-actin and Lamin B were visualized using a Western Blot Detection Chemiluminescence Kit (Merck). Protein extracted from the total lysates/cytoplasm and nucleus was quantified in relation to β-actin and Lamin B bands, respectively.
The antibodies used in the experiments were as follows: rabbit anti-mouse IKKα/β polyclonal antibody (1:1,000, Abways, China), rabbit anti-mouse IκBα polyclonal antibody (1:1,000, Abgent, China), rabbit anti-mouse p65 polyclonal antibody (1:1,000, Abgent, China), rabbit anti-mouse phosphorylated IKKα (Ser176)/β (Ser177) (1:1,000, Abways, China), rabbit anti-mouse phosphorylated IκBα (1:1,000, Abcam, United States), rabbit anti-mouse phosphorylated p65 (1:1,000, Abcam, United States), rabbit anti-mouse IRAK4 polyclonal antibody (1:1,000, Proteintech, United States), rabbit anti-mouse phosphorylated IRAK4 (Thr345/Ser346) (1:1,000, Affinity, United States), rabbit anti-mouse IKKβ polyclonal antibody (1:1,000, Abbkine, United States), rabbit anti-mouse phosphorylated IKKβ (Ser177) (1:1,000, Abways, China), rabbit anti-mouse IRF5 polyclonal antibody (1:1,000, Immunoway, United States), rabbit anti-mouse phosphorylated IRF5 (Ser437) (1:1,000, Affinity, United States), anti-mouse actin monoclonal antibody (1:20,000, Transgen, China) and rabbit anti-mouse LaminB monoclonal antibody (1:5,000, Abways, China).
(Immunoblotting shows a protein as a band on a membrane.)

Series [3] concerns SMMC-7721 and Hep G2 cells. Also noted: method as in Fan et al., 2019. As to conditions: via STAT3 phosphorylation; ref Fan et al., 2019; cited from earlier work.
The mark [4] stands for this setting: male, C57BL/6, mouse, ip, mice, 40 mg/kg intraperitoneal injection, plasma.

As usually defined, the AUC(0-inf) is total exposure, with the tail of the curve extrapolated. Read a high AUC(0-inf) as high exposure. The AUC(0-t) is exposure summed from dosing to a finite time, without extrapolation to infinity. Read a high AUC(0-t) as more exposure. What is called Tmax is the time at which the peak concentration occurs. As usually defined, the half-life is the time needed for the level to fall by half in the phase considered. For orientation: Cmax means the maximum level reached in the sampled fluid or tissue. `C=C1C(OC(=O)c2ccccc2)CC2C(C=C(C)C(=O)C3(OC(C)=O)CC(C)C(OC(=O)c4ccccc4)C3C1OC(C)=O)C2(C)C` (centres unmarked) [EFL2, Euphorbia factor L2]: in series [1] (based on Cmax and molecular weight (MW = 642.6)), the “peak concentration in sera” value turned out to be 7.03 µM. For the same molecule, in series [1] (setting [4]), the AUC(0-inf) came out at 379 ± 166 µg·h/mL, the AUC(0-t) came to 374 ± 164 µg·h/mL, the Tmax came to 2.5 ± 1.73 h and the half-life was 21.2 ± 7.11 h. Also, in series [1] (male, C57BL/6, mouse, ip, mice, 40 mg/kg intraperitoneal injection, plasma, read-out: MRT0-t), the MRT last worked out at 59.2 ± 2.75 h. In series [1] (male, C57BL/6, mouse, ip, mice, 40 mg/kg intraperitoneal injection, plasma, read-out: MRT0-∞), the MRT inf was found to be 61.4 ± 3.7 h. In series [1] (male, C57BL/6, mouse, plasma, ip, mice, 40 mg/kg i.p.), this molecule came in with a Cmax of 4520 ± 1630 ng/mL. The molecule also displayed a Cmax in series [1] (male, C57BL/6, mouse, plasma, ip, mice, 40 mg/kg intraperitoneal injection) of 4530 ng/mL. Also, the “IRF5 translocation (cytoplasm to nucleus)” value in series [2] (EFL2 at 5 and 10 μM, also immunofluorescence) is “effectively blocked”. In addition, in series [2] (EFL2 pretreatment 1, 5, 10 μM), the “phosphorylation of IKKβ” value is “significantly suppressed”, the “phosphorylation of IRAK4” value is listed as “significantly suppressed” and the “phosphorylation of IRF5” value is listed as “significantly suppressed”. For the same molecule, the “SMMC-7721 and Hep G2 cells proliferation and migration” value in series [3] is “suppressing”.
